The test system of the test is CD2F1 mice, L1210 leukemia ip, survival T/C. Kind of test: NCI In Vivo Anticancer Drug Screen. Data for tumor model L1210 Leukemia (intraperitoneal) in CD2F1 (CDF1) mice. The settings on record: higher = longer survival. The method in brief: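 Read-out first: treated-group measurement over vehicle-control measurement, expressed as a ratio. Animals bore a transplanted tumor line and were dosed with compound or vehicle.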

Where [1] appears, read: endpoint: mean survival time, dose: 12.5 mg/kg/injection, schedule: Q01DX009 (ip), vehicle: saline with Tween-80.
The mark [2] stands for this setting: endpoint: mean survival time, dose: 200.0 mg/kg/injection, schedule: Q04DX003 (ip), vehicle: saline with Tween-80.
[3] abbreviates: endpoint: mean survival time, dose: 100.0 mg/kg/injection, schedule: Q04DX003 (ip), vehicle: saline.
The mark [4] stands for this setting: endpoint: mean survival time, dose: 200.0 mg/kg/injection, schedule: Q04DX003 (ip), vehicle: saline.
Setting [5] is: endpoint: mean survival time, dose: 400.0 mg/kg/injection, schedule: Q04DX003 (ip), vehicle: saline.
Setting [6] is: endpoint: mean survival time, dose: 100.0 mg/kg/injection, schedule: Q01DX001 (ip), vehicle: saline with Tween-80.
Setting [7] is: endpoint: mean survival time, dose: 200.0 mg/kg/injection, schedule: Q01DX001 (ip), vehicle: saline with Tween-80.

“And” between values parts separate entries of the source, which are not always exact repeats. Identical values can stand only once. Toxic doses and inconclusive results are not listed. Starred links: 1 amine or outer side, 2 acyl side, 3 side chain; linkers in the order of their positions; H or OH if unused. Non-standard residues stand in square brackets, D forms with d. Residues, ends and D or L forms follow the SMILES beside them. *: point of attachment. X2 = CCC(=O)CC1CC(C)CC(C(=O)[*:2])N1[*:1]; X1 = CCCCCCCCC(C)C(=O)*; Aib = CC(C)(N)C(=O)O; X3 = CC(CN(C)CCO)N*

Consider `COc1cc(OC)c(OC)cc1/C=c1\[nH]c(=O)/c(=C/c2cc(OC)c(OC)cc2OC)[nH]c1=O`, for which the T/C runs as follows: (endpoint: mean survival time, dose: 3.13 mg/kg/injection, schedule: Q01DX009 (ip), vehicle: saline with Tween-80) 102 % of control; (endpoint: mean survival time, dose: 6.25 mg/kg/injection, schedule: Q01DX009 (ip), vehicle: saline with Tween-80) 90 % of control; under setting [1], 91 % of control; under setting [2], 87 % of control.

With `c1ccc(CNc2ccccn2)cc1`, the T/C reads like this: (endpoint: mean survival time, dose: 100.0 mg/kg/injection, schedule: Q04DX003 (ip), vehicle: saline with Tween-80) 97 % of control; under setting [2], 97 % of control; (endpoint: mean survival time, dose: 400.0 mg/kg/injection, schedule: Q04DX003 (ip), vehicle: saline with Tween-80) 95 % of control.

As to `O=C1CN2CCC1CC2`, the T/C is 102 % of control under setting [3] and 107 % of control under setting [4].

Consider `O=S1(=O)CS(=O)(=O)OCCO1`, for which the T/C by setting is: (endpoint: median survival time, dose: 6.25 mg/kg/injection, schedule: Q01DX009 (oral), vehicle: Klucel (hydroxypropylcellulose) (HPC)) 112 % of control; (endpoint: median survival time, dose: 12.5 mg/kg/injection, schedule: Q01DX001 (oral), vehicle: Klucel (hydroxypropylcellulose) (HPC)) 101 % of control; (endpoint: median survival time, dose: 22.0 mg/kg/injection, schedule: Q06HX002 (oral), vehicle: Klucel (hydroxypropylcellulose) (HPC)) 113 % of control; (endpoint: median survival time, dose: 25.0 mg/kg/injection, schedule: Q01DX001 (oral), vehicle: Klucel (hydroxypropylcellulose) (HPC)) 112 % of control; (endpoint: median survival time, dose: 25.0 mg/kg/injection, schedule: Q01DX009 (oral), vehicle: Klucel (hydroxypropylcellulose) (HPC)) 213 % of control; (endpoint: median survival time, dose: 33.0 mg/kg/injection, schedule: Q01DX001 (oral), vehicle: Klucel (hydroxypropylcellulose) (HPC)) 117 % of control. Also, the T/C (endpoint: median survival time, dose: 33.0 mg/kg/injection, schedule: Q01DX005 (oral), vehicle: Klucel (hydroxypropylcellulose) (HPC)) is 103 % of control; the T/C (endpoint: median survival time, dose: 33.0 mg/kg/injection, schedule: Q06HX002 (oral), vehicle: Klucel (hydroxypropylcellulose) (HPC)) was 117 % of control; the T/C (endpoint: median survival time, dose: 49.5 mg/kg/injection, schedule: Q01DX001 (oral), vehicle: Klucel (hydroxypropylcellulose) (HPC)) was 123 % of control; the T/C (endpoint: median survival time, dose: 50.0 mg/kg/injection, schedule: Q01DX001 (oral), vehicle: Klucel (hydroxypropylcellulose) (HPC)) was 119 % of control; the T/C (endpoint: median survival time, dose: 50.0 mg/kg/injection, schedule: Q01DX009 (oral), vehicle: Klucel (hydroxypropylcellulose) (HPC)) is 178 % of control and 337 % of control; the T/C (endpoint: median survival time, dose: 74.2 mg/kg/injection, schedule: Q01DX005 (oral), vehicle: Klucel (hydroxypropylcellulose) (HPC)) was 185 % of control. Further, the T/C was 124 % of control (endpoint: median survival time, dose: 100.0 mg/kg/injection, schedule: Q01DX001 (oral), vehicle: Klucel (hydroxypropylcellulose) (HPC)); 238 % of control (endpoint: median survival time, dose: 100.0 mg/kg/injection, schedule: Q01DX009 (oral), vehicle: Klucel (hydroxypropylcellulose) (HPC)); 212 % of control (endpoint: median survival time, dose: 111.2 mg/kg/injection, schedule: Q01DX005 (oral), vehicle: Klucel (hydroxypropylcellulose) (HPC)); 235 % of control (endpoint: median survival time, dose: 112.5 mg/kg/injection, schedule: Q01DX001 (oral), vehicle: Klucel (hydroxypropylcellulose) (HPC)); 160 % of control (endpoint: median survival time, dose: 166.8 mg/kg/injection, schedule: Q01DX001 (oral), vehicle: Klucel (hydroxypropylcellulose) (HPC)); 272 % of control (endpoint: median survival time, dose: 166.8 mg/kg/injection, schedule: Q01DX005 (oral), vehicle: Klucel (hydroxypropylcellulose) (HPC)). The T/C is, setting by setting: (endpoint: median survival time, dose: 200.0 mg/kg/injection, schedule: Q01DX001 (oral), vehicle: Klucel (hydroxypropylcellulose) (HPC)) 178 % of control; (endpoint: median survival time, dose: 250.0 mg/kg/injection, schedule: Q01DX001 (oral), vehicle: Klucel (hydroxypropylcellulose) (HPC)) 225 % of control.

Consider `O=N/C=C/C(=N/Nc1ccc(C(=O)O)cc1)[N+](=O)[O-]`, for which the T/C runs as follows: under setting [3], 96 % of control; under setting [4], 96 % of control; under setting [5], 90 % of control.

For `NNC(=O)CCCCCCCCCCCCCO`, the T/C (endpoint: mean survival time, dose: 50.0 mg/kg/injection, schedule: Q01DX001 (ip), vehicle: saline with Tween-80) was 98 % of control; the T/C under setting [6] is 101 % of control; the T/C under setting [7] was 101 % of control.

Take `COc1cc(OC)c(/C=C/c2ccc3ccccc3[n+]2C)c(OC)c1`: the T/C is, setting by setting: (endpoint: mean survival time, dose: 0.31 mg/kg/injection, schedule: Q01DX009 (ip), vehicle: saline) 103 % of control; (endpoint: mean survival time, dose: 0.62 mg/kg/injection, schedule: Q01DX009 (ip), vehicle: saline) 114 % of control; (endpoint: mean survival time, dose: 1.25 mg/kg/injection, schedule: Q01DX009 (ip), vehicle: saline) 121 % of control.

As to `CC(=O)Nc1nc(Br)c2ccccc2c1-c1ccc(N(CCOS(=O)(=O)c2ccc(C)cc2)CCOS(=O)(=O)c2ccc(C)cc2)cc1`, the T/C is, setting by setting: (endpoint: mean survival time, dose: 12.5 mg/kg/injection, schedule: Q04DX003 (ip), vehicle: DMSO) 98 % of control; (endpoint: mean survival time, dose: 25.0 mg/kg/injection, schedule: Q04DX003 (ip), vehicle: DMSO) 102 % of control; (endpoint: mean survival time, dose: 50.0 mg/kg/injection, schedule: Q04DX003 (ip), vehicle: DMSO) 102 % of control; (endpoint: mean survival time, dose: 100.0 mg/kg/injection, schedule: Q04DX003 (ip), vehicle: DMSO) 105 % of control.

Take `NC1=NC(=O)CC(=O)N1`: the T/C under setting [6] is 102 % of control and the T/C under setting [7] is 103 % of control.

In the case of `CCCCN(CCCC)N=O`, the T/C by setting is: (endpoint: mean survival time, dose: 25.0 mg/kg/injection, schedule: Q01DX009 (ip), vehicle: Klucel (hydroxypropylcellulose) (HPC)) 96 % of control; (endpoint: mean survival time, dose: 50.0 mg/kg/injection, schedule: Q01DX009 (ip), vehicle: Klucel (hydroxypropylcellulose) (HPC)) 90 % of control; (endpoint: mean survival time, dose: 100.0 mg/kg/injection, schedule: Q01DX009 (ip), vehicle: Klucel (hydroxypropylcellulose) (HPC)) 98 % of control.

For the molecule `O=S(=O)(Cc1ccc(CS(=O)(=O)c2ccc(Cl)cc2)cc1)c1ccc(Cl)cc1`, the T/C reads like this: under setting [1], 91 % of control; (endpoint: mean survival time, dose: 25.0 mg/kg/injection, schedule: Q01DX009 (ip), vehicle: saline with Tween-80) 90 % of control; (endpoint: mean survival time, dose: 50.0 mg/kg/injection, schedule: Q01DX009 (ip), vehicle: saline with Tween-80) 91 % of control.

Turning to `CC(C)C1OC(C(F)(F)F)(C(F)(F)Cl)CC1=O` (stereo not given), the T/C (endpoint: mean survival time, dose: 100.0 mg/kg/injection, schedule: Q01DX001 (ip), vehicle: Klucel (hydroxypropylcellulose) (HPC)) is 86 % of control; the T/C (endpoint: mean survival time, dose: 200.0 mg/kg/injection, schedule: Q01DX001 (ip), vehicle: Klucel (hydroxypropylcellulose) (HPC)) was 97 % of control; the T/C (endpoint: mean survival time, dose: 400.0 mg/kg/injection, schedule: Q01DX001 (ip), vehicle: Klucel (hydroxypropylcellulose) (HPC)) was 98 % of control.

Take `CCCCCCCCC(C)C(=O)N1CCCC1C(=O)N1C(CC(=O)CC)CC(C)CC1C(=O)NC(C)C(=O)NC(C)(C)C(=O)NC(C)(C)C(=O)NC(C(=O)NC(C)C(=O)NC(C)(C)C(=O)NC(C)(C)C(=O)NC(C)CN(C)CCO)C(C)CC` (stereo not given) (X1-P[X2]A[Aib][Aib]IA[Aib][Aib]-X3; configuration not given here): the T/C is, setting by setting: (endpoint: mean survival time, dose: 0.15 mg/kg/injection, schedule: Q01DX009 (ip), vehicle: Klucel (hydroxypropylcellulose) (HPC)) 110 % of control; (endpoint: mean survival time, dose: 0.31 mg/kg/injection, schedule: Q01DX009 (ip), vehicle: Klucel (hydroxypropylcellulose) (HPC)) 111 % of control and 112 % of control; (endpoint: mean survival time, dose: 0.62 mg/kg/injection, schedule: Q01DX009 (ip), vehicle: Klucel (hydroxypropylcellulose) (HPC)) 115 % of control and 104 % of control; (endpoint: mean survival time, dose: 1.25 mg/kg/injection, schedule: Q01DX009 (ip), vehicle: Klucel (hydroxypropylcellulose) (HPC)) 122 % of control and 108 % of control; (endpoint: mean survival time, dose: 2.5 mg/kg/injection, schedule: Q01DX009 (ip), vehicle: Klucel (hydroxypropylcellulose) (HPC)) 115 % of control and 117 % of control; (endpoint: mean survival time, dose: 5.0 mg/kg/injection, schedule: Q01DX009 (ip), vehicle: Klucel (hydroxypropylcellulose) (HPC)) 103 % of control.

Turning to `OC1CCCCCCCCCCC12OCCO2` (stereo not given), the T/C runs as follows: (endpoint: mean survival time, dose: 100.0 mg/kg/injection, schedule: Q04DX002 (ip), vehicle: other) 98 % of control; (endpoint: mean survival time, dose: 200.0 mg/kg/injection, schedule: Q04DX002 (ip), vehicle: other) 113 % of control; (endpoint: mean survival time, dose: 400.0 mg/kg/injection, schedule: Q04DX002 (ip), vehicle: other) 95 % of control.

For the molecule `CC(=O)NCC(C)OC(C)=O` (stereo not given), the T/C was 101 % of control under setting [3], 97 % of control under setting [4] and 98 % of control under setting [5].

The record behind these values is PubChem BioAssay AID256 (DTP/NCI, 2004).
